{"source": "paper PMC7136958", "about": "“Targeting the pregnane X receptor using microbial metabolite mimicry” (EMBO Molecular Medicine, 2020)", "key": {"P300": {"target": "T1, P300 (Homo sapiens, UniProt Q09472)", "T1 construct": "or p300 (aa 1284-1672); purchased Reaction Biology Corp; host or cells: E. coli", "T1 sequence (Q09472 1284-1672)": "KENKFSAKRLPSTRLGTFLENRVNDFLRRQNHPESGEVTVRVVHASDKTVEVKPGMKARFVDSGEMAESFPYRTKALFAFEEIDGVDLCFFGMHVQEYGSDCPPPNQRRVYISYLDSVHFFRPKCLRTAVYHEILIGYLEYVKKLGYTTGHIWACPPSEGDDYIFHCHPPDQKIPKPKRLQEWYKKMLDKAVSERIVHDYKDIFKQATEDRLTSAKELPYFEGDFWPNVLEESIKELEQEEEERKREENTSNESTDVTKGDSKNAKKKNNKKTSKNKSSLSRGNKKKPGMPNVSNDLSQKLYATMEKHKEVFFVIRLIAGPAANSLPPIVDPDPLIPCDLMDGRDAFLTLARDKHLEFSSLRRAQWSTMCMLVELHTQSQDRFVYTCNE", "test": "Histone acetyltransferase assay p300 (Reaction Biology)", "format": "biochemical", "protocol": "(§1) Software Tool and reprinted with permission from KINOME scan®, a division of DiscoveRx […]\n(§2) The following […] assays (HDAC, SIRT1, PRMT1, PARP1, p300, pCAF) were performed by Reaction Biology Corp. FKK6 was screened at a single concentration of 10 μM in duplicate in two separate experiments. The appropriate controls for the individual assays are published. The overall […]\n(§3) enzyme activity in the assay is reported as a % activity in DMSO control wells. Control IC50 […]\n(§4) Briefly, for the Sirtuin (SIRT1) assay, human SIRT1 (GenBank\nAccession No. NM012238) full -length N-terminal His-tag protein (MW 83.2 kDa) was purified after expression in E. coli. […]\n8), 50 mM NaCl, 0.1 mM EDTA, 1 mM DTT, 1 mM PMSF, and 1% DMSO. […] The radioactivity in mixture is detected on washed filter paper using a scintillation counter. […]\nThe 2X HDAC substrate is a fluorogenic acetylated peptide from p53 (residues 379 - 38 2 RHKK(Ac)AMC) which is mixed in with the enzyme-compound complex and incubated for 1-2 h at 30 °C. In the development step, a proprietary developer with trichostatin A (or TMP269) is added to stop the reaction and to generate fluorescent color which is read using an EnVision Multilabel Plate Reader (Perkin Elmer) (Ex 360 nm/ Em 460 nm). […]"}, "PRMT1": {"target": "T2, PRMT1 (Homo sapiens, UniProt Q99873)", "T2 construct": "purchased Reaction Biology Corp", "T2 sequence (Q99873 whole entry, species assumed)": "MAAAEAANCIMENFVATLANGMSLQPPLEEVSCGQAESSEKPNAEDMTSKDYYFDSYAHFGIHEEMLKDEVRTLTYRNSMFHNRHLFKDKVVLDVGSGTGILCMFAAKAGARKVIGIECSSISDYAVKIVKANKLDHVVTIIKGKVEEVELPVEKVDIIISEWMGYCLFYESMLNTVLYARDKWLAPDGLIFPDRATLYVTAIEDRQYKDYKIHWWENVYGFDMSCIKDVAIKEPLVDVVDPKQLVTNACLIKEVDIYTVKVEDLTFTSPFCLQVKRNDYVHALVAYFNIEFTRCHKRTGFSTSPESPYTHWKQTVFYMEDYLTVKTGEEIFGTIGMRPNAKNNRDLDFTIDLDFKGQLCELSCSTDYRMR", "test": "Histone methyltransferase assay (Reaction Biology)", "format": "biochemical", "details": "substrate Histone H4, replicates", "protocol": "as §1, §2, §3, §4\nAccession No. NM012238) full -length N-terminal His-tag protein (MW 83.2 kDa) was purified after expression in E. coli. The reaction buffer was freshly prepared and constituted 50 mM Tris-HC l ( p H 8), 137 mM NaCl, 2.7 mM KCl, 1 mM MgCl2, and just before use, 1 mg/mL BSA and 1% DMSO was added. The substrate was a fluorogenic acetylated peptide of p53 residues 379-382 (RHKK (Ac)- AM C) . In th e multi-well format, the 2X enzyme was mixed with the reaction buffer followed by compound (in 100% DMSO) titration via Acoustic technology (Echo550; LabCyte Inc, Sunnyvale, CA) in the nanoliter range. The mixture was spun down and 2X substrate (including NAD+) was added to initiate the reaction at 30° C at 2h under seal. […]"}}, "note": "“And” between values parts separate entries of the source, which are not always exact repeats. Equal entries are not always repeated."}
{"molecule": "C#CCC(O)(c1ccncc1)c1cc2ccccc2n1S(=O)(=O)c1ccccc1", "note": "(stereo not shown) [FKK6]", "values": [{"measurement": "% Enzyme Activity to DMSO controls", "setting": "P300; 10 μM, substrate Histone H3, replicates data1/2 Exp 1/2", "result": "97.73% and 98.72% and 95.38%"}, {"measurement": "remaining activity at 10 µM", "setting": "P300; substrate Histone H3, replicates data1/2 Exp 1/2, read-out: % Enzyme Activity to DMSO controls", "result": 100, "unit": "%"}, {"measurement": "% Enzyme Activity to DMSO controls", "setting": "PRMT1; 10 μM", "result": "88.77% and 78.47% and 81.3%"}, {"measurement": "remaining activity at 10 µM", "setting": "PRMT1; read-out: % Enzyme Activity to DMSO controls", "result": 86.4, "unit": "%"}]}
